Reference: patent publication US10165776B2, “Substituted pyrazolylpyrazole derivative and use of same as herbicide” (KYOYU AGRI CO., LTD., priority 2015, dated 2019)

Legend:
Format in all cases: in vivo
Oryza sativa = assay: Paddy herbicidal activity test, phytotoxicity to transplanted rice; details: rice transplanted at 2.0 leaf stage, 30 days at 30° C.
Description: (§1) Rice paddy soil was filled into a 1/10000 are pot followed by the addition of suitable amounts of water and chemical fertilizer, kneading, seeding with Echinochloa crus-galli, Monochoria vaginalis and Scirpus juncoides and maintaining in an irrigated state at a water depth of 3 cm. Wettable powders of Target Compound (I) shown in Table 1 prepared in compliance with the preparation examples were diluted with a suitable amount of water, rice plants in the 2.0 leaf stage were transplanted during 3.5 leaf stage of Echinochloa crus-galli, and treated by dropping in chemical in the prescribed amount per 10 are using a pipette. After treating for 30 days in a glass greenhouse at an average atmospheric temperature of 30° C., the herbicidal efficacy thereof was investigated. Evaluation of herbicidal efficacy was carried out by comparing growth inhibition rate (%) with an untreated group, while evaluation of phytotoxicity was carried out by comparing growth inhibition rate (%) with the state of a complete eradication group, and were evaluated at 11 levels indicated below.

Monochoria vaginalis = assay: Paddy herbicidal activity test; details: irrigated pot, treated at 3.5 leaf stage of Echinochloa crus-galli, 30 days at 30° C.
Description: as §1

Echinochloa crus-galli = assay: Paddy herbicidal activity test; details: irrigated pot, treated at 3.5 leaf stage of Echinochloa crus-galli, 30 days at 30° C.
Description: as §1

Scirpus juncoides = assay: Paddy herbicidal activity test; details: irrigated pot, treated at 3.5 leaf stage of Echinochloa crus-galli, 30 days at 30° C.
Description: as §1

Chenopodium album [1] = assay: Farming soil treatment test; details: soil surface spray prior to weed growth, 30 days at 30° C.
Description: (§2) Field soil was filled into a 1/6000 are pot followed by seeding with Digitaria ciliaris, Chenopodium album and Amaranthus retroflexus and covering with soil. Wettable powders of compounds of formula (I) shown in Table 1 prepared in compliance with the preparation examples were diluted with water to the prescribed amount of chemical and uniformly sprayed onto each soil surface layer using 100 liters of sprayed water per 10 are prior to weed growth following seeding. After treating for 30 days in a glass greenhouse at an average atmospheric temperature of 30° C., the herbicidal efficacy thereof was investigated. Evaluation of herbicidal efficacy was carried out in the same manner as the above-mentioned Test Example 1.

Digitaria ciliaris [2] = assay: Farming soil treatment test; details: soil surface spray prior to weed growth, 30 days at 30° C.
Description: as §2

Amaranthus retroflexus [3] = assay: Farming soil treatment test; details: soil surface spray prior to weed growth, 30 days at 30° C.
Description: as §2

Chenopodium album [4] = assay: Weed foliar treatment test (Test 3, 1.0 to 2.0 leaf stage); details: foliar spray at 1.0 to 2.0 leaf stage of Digitaria ciliaris, 3 weeks at 25° C.
Description: (§3) Soil was filled into a 1/6000 are pot followed by seeding with Digitaria ciliaris, Chenopodium album and Amaranthus retroflexus, covering with soil, and cultivating in a glass greenhouse at an average atmospheric temperature of 25° C. Wettable powders of Target Compound (I) shown in Table 1 prepared in compliance with the preparation examples were diluted with water to the prescribed amount of chemical and uniformly sprayed onto the weeds using 150 liters of sprayed water per 10 are when Digitaria ciliaris had grown to the 1.0 to 2.0 leaf stage. After treating for 3 weeks in a glass greenhouse at an average atmospheric temperature of 25° C., the herbicidal efficacy thereof was investigated. Evaluation of herbicidal efficacy was carried out in the same manner as the above-mentioned Test Example 1.

Digitaria ciliaris [5] = assay: as above; details: foliar spray at 1.0 to 2.0 leaf stage of Digitaria ciliaris, 3 weeks at 25° C.
Description: as §3

Amaranthus retroflexus [6] = assay: as above; details: foliar spray at 1.0 to 2.0 leaf stage of Digitaria ciliaris, 3 weeks at 25° C.
Description: as §3

Galinsoga parviflora = assay: Weed foliar treatment test (Test 4, 4.0 to 5.0 leaf stage); details: 10 g a.i./10 a; foliar spray at 4.0 to 5.0 leaf stage of Digitaria ciliaris (plant height 10 cm to 15 cm); 20 days at 25° C.
Description: (§4) Field soil was filled into a 1/4500 are pot followed by seeding with Digitaria ciliaris and Galinsoga parviflora, covering with soil and cultivating in a glass greenhouse at an average atmospheric temperature of 25° C. Wettable powders of Target Compound (I) shown in Table 1 prepared in compliance with the preparation examples were diluted with water to the prescribed amount of chemical and uniformly sprayed onto the weeds using 100 liters of sprayed water per 10 are when Digitaria ciliaris had grown to the 4.0 to 5.0 leaf stage (plant height: 10 cm to 15 cm). After treating for 20 days in a glass greenhouse at an average atmospheric temperature of 25° C., the herbicidal efficacy thereof was investigated. Evaluation of herbicidal efficacy was carried out in the same manner as the above-mentioned Test Example 1.

Digitaria ciliaris [7] = assay: as above; details: 10 g a.i./10 a; foliar spray at 4.0 to 5.0 leaf stage of Digitaria ciliaris (plant height 10 cm to 15 cm); 20 days at 25° C.
Description: as §4

Structure (SMILES)	phytotoxicity, Oryza sativa (Oryza sativa; 1 g a.i./10 a)	phytotoxicity, Oryza sativa (Oryza sativa; 5 g a.i./10 a)	herbicidal efficacy, Monochoria vaginalis (Monochoria vaginalis; 1 g a.i./10 a)	herbicidal efficacy, Monochoria vaginalis (Monochoria vaginalis; 5 g a.i./10 a)	herbicidal efficacy, Echinochloa crus-galli (Echinochloa crus-galli; 1 g a.i./10 a)	herbicidal efficacy, Echinochloa crus-galli (Echinochloa crus-galli; 5 g a.i./10 a)	herbicidal efficacy, Scirpus juncoides (Scirpus juncoides; 1 g a.i./10 a)	herbicidal efficacy, Scirpus juncoides (Scirpus juncoides; 5 g a.i./10 a)	herbicidal efficacy, Chenopodium album (Chenopodium album [1]; 5 g a.i./10 a)	herbicidal efficacy, Chenopodium album (Chenopodium album [1]; 10 g a.i./10 a)	herbicidal efficacy, Digitaria ciliaris (Digitaria ciliaris [2]; 5 g a.i./10 a)	herbicidal efficacy, Digitaria ciliaris (Digitaria ciliaris [2]; 10 g a.i./10 a)	herbicidal efficacy, Amaranthus retroflexus (Amaranthus retroflexus [3]; 5 g a.i./10 a)	herbicidal efficacy, Amaranthus retroflexus (Amaranthus retroflexus [3]; 10 g a.i./10 a)	herbicidal efficacy, Chenopodium album (Chenopodium album [4]; 5 g a.i./10 a)	herbicidal efficacy, Chenopodium album (Chenopodium album [4]; 10 g a.i./10 a)	herbicidal efficacy, Digitaria ciliaris (Digitaria ciliaris [5]; 5 g a.i./10 a)	herbicidal efficacy, Digitaria ciliaris (Digitaria ciliaris [5]; 10 g a.i./10 a)	herbicidal efficacy, Amaranthus retroflexus (Amaranthus retroflexus [6]; 5 g a.i./10 a)	herbicidal efficacy, Amaranthus retroflexus (Amaranthus retroflexus [6]; 10 g a.i./10 a)	also measured
Cc1ccccc1CC(=O)Nc1c(C#N)cnn1-c1nn2c(c1Cl)CCCC2 [Compound 6]	1 (1: 10% to less than 20%)	1 (1: 10% to less than 20%)	10 (10: 100%)	10 (10: 100%)	10 (10: 100%)	10 (10: 100%)	10 (10: 100%)	10 (10: 100%)	9 (9: 90% to less than 100%)	10 (10: 100%)	9 (9: 90% to less than 100%)	9 (9: 90% to less than 100%)	9 (9: 90% to less than 100%)	9 (9: 90% to less than 100%)	10 (10: 100%)	10 (10: 100%)	10 (10: 100%)	10 (10: 100%)	10 (10: 100%)	10 (10: 100%)	herbicidal efficacy, Galinsoga parviflora (Galinsoga parviflora): 10 (10: 100%); herbicidal efficacy, Digitaria ciliaris (Digitaria ciliaris [7]): 10 (10: 100%)
Cc1cccc(CC(=O)Nc2c(C#N)cnn2-c2nn3c(c2Cl)CCCC3)c1 [Compound 9]	0 (0 (exponent): 0% to less than 10% (growth inhibition rate))	0 (0 (exponent): 0% to less than 10% (growth inhibition rate))	9 (9: 90% to less than 100%)	10 (10: 100%)	9 (9: 90% to less than 100%)	9 (9: 90% to less than 100%)	9 (9: 90% to less than 100%)	9 (9: 90% to less than 100%)	9 (9: 90% to less than 100%)	10 (10: 100%)	9 (9: 90% to less than 100%)	9 (9: 90% to less than 100%)	9 (9: 90% to less than 100%)	10 (10: 100%)	10 (10: 100%)	10 (10: 100%)	10 (10: 100%)	10 (10: 100%)	10 (10: 100%)	10 (10: 100%)	herbicidal efficacy, Galinsoga parviflora (Galinsoga parviflora): 10 (10: 100%); herbicidal efficacy, Digitaria ciliaris (Digitaria ciliaris [7]): 10 (10: 100%)
N#Cc1cnn(-c2nn3c(c2Cl)CCCC3)c1NC(=O)Cc1cccc(F)c1 [Compound 11]	0 (0 (exponent): 0% to less than 10% (growth inhibition rate))	1 (1: 10% to less than 20%)	9 (9: 90% to less than 100%)	9 (9: 90% to less than 100%)	9 (9: 90% to less than 100%)	10 (10: 100%)	9 (9: 90% to less than 100%)	10 (10: 100%)	10 (10: 100%)	10 (10: 100%)	9 (9: 90% to less than 100%)	10 (10: 100%)	9 (9: 90% to less than 100%)	9 (9: 90% to less than 100%)	10 (10: 100%)	10 (10: 100%)	10 (10: 100%)	10 (10: 100%)	10 (10: 100%)	10 (10: 100%)	herbicidal efficacy, Galinsoga parviflora (Galinsoga parviflora): 10 (10: 100%); herbicidal efficacy, Digitaria ciliaris (Digitaria ciliaris [7]): 10 (10: 100%)
N#Cc1cnn(-c2nn3c(c2Cl)CCCC3)c1NC(=O)Cc1ccc(F)cc1 [Compound 15]	1 (1: 10% to less than 20%)	1 (1: 10% to less than 20%)	10 (10: 100%)	10 (10: 100%)	10 (10: 100%)	10 (10: 100%)	9 (9: 90% to less than 100%)	10 (10: 100%)	10 (10: 100%)	10 (10: 100%)	9 (9: 90% to less than 100%)	10 (10: 100%)	10 (10: 100%)	10 (10: 100%)	10 (10: 100%)	10 (10: 100%)	10 (10: 100%)	10 (10: 100%)	10 (10: 100%)	10 (10: 100%)	herbicidal efficacy, Galinsoga parviflora (Galinsoga parviflora): 10 (10: 100%); herbicidal efficacy, Digitaria ciliaris (Digitaria ciliaris [7]): 10 (10: 100%)
